Results reported in patent US20130012531A1, “TREATMENT METHOD” (priority 2010, published 2013).
Where two headings read alike, the source gives them in different places.

How the values were obtained:
[1] = Plasma and ocular tissue drug concentration after topical eye drops; assay type: in vivo, Norway Brown rats; details: for concentration at 5 hours after third drop: female, Norway Brown, rat, topical, 30 μl (5 mg/ml) per drop, three drops over 24 hours, 30 μl drops to left eye only, three times over 24 hours
Protocol: Female Norway Brown rats were used during these studies. Rats were purchased from Charles River (Portage, Mich.). […]
Rats were euthanized by CO2 inhalation before enucleation and collection of plasma samples. Samples were frozen immediately over dry ice after collection and then stored at −80° C. The ocular tissues were processed through a dissection-pulverization-drug extraction process. Frozen eye sectioning was performed by the following steps. The preparation of rat eye cups was done by removing the anterior portion of the eye with a razor blade followed by removal of the lens and frozen vitreous with forceps. A sagittal section was made in the eye cup before collection of the retina/choroid tissue by scraping the exposed sclera with the round end of a spatula until the pigmented tissue was completely removed from the scleral tissue. The collected tissues were pulverized under liquid nitrogen. Frozen tissue was carefully placed in a liquid nitrogen primed BioPulverizer (Biospec Products Inc, Bartlesville, Okla.). Following pulverization the tissue powder was removed from the pulverizer and transferred into a polypropylene tube. Extraction buffer (50% methanol/50% 0.5 M HCl) was added to tissue powder followed by two cycles of sonication, centrifugation, and supernatant collection. Tissue homogenate supernatant was pooled and frozen on dry ice then stored at −80° C. until drug analysis. The extraction efficacy of this methodology was assumed to be 100% for calculation purposes.
Plasma samples and eye tissue extracts were analyzed for pazopanib using a validated analytical method based on protein precipitation, followed by HPLC/MS/MS analysis, Using 50 μl aliquot of plasma and eye tissue extract, the lower limit of quantification of pazopanib was 1 ng/ml for plasma and 10 ng/ml for eye tissue extract. The higher limit of quantification was 500 ng/ml for plasma and 5000 ng/ml for eye tissue extracts. The computer systems that were used on these studies to acquire and quantify data included Analyst Version 1.4,1 and SMS2000 Version 1.6. Plasma sample concentrations were expressed as ng pazopanib/ml. Tissue concentrations were determined by the following formula: Pazopanib ng/g tissue=([concentration in supernatant ng/ml*extract volume ml]/tissue weight g).

[2] = Ocular tissue distribution and systemic concentrations of radioactivity after topical ocular administration; assay type: in vivo, Dutch belted (pigmented) rabbits
Protocol: The ocular tissue distribution and systemic concentrations of radioactivity were assessed following topical ocular administration of pazopanib to Dutch belted (pigmented) rabbits. A single 60-μL at a target dose of 0.3 mg/dose (30 μCi/dose) was administered to the right eye. Blood and ocular tissues from both the dosed and non-dosed (left) eye were collected from one animal at each of eight sampling times up to 24 h, and analyzed for total radioactivity.

CNV lesions = assay: Histology (HE) of CNV lesion area on post-laser day 14; assay type: in vivo, Brown Norway rats
Protocol: (§1) Male Brown Norway rats (10-12 weeks of age, […] weighing 170 to 360 g) were used throughout this study. The animals were treated according to ARVO Statement on the use of animals in ophthalmic and vision research, and all animal experiments were reviewed and approved by municipal and University Hospital animal care committees in Leipzig. The rats were anesthetized with intraperitoneal ketamine (100 mg/kg; Ratiopharm, Ulm, Germany) and xylazine (BayerVital, Leverkusen, Germany; 10 mg/kg). Topical application of tropicamide (5 mg/ml) and phenylephrine hydrochloride (Ankerpharm, Rudolstadt, Germany; 50 mg/ml) were instilled for mydriasis during laser photocoagulation and fluorescein angiography. Fourteen days after laser injury, rats were humanely euthanized using overdoses of carbon dioxide.
(§2) Animals were treated using laser photocoagulation-induced rupture of Bruch's membrane using a 545 nm dye laser (Coherent Argon Dye Laser #920, Coherent Medical Laser, Palo Alto, Calif.) attached to a slit lamp (Carl Zeiss, Oberkochen, Germany). A contact lens was used to retain corneal clarity through photocoagulation. The laser spots were placed separately using the following settings; 50-μm diameter, 0.1 second duration, and 180-mW intensity. To rupture Bruch's membrane, four to seven laser spots were applied between the major retinal vessels close to the optic disc. Pazopanib (approximately 30 μl of a 5 mg/ml sterile-filtered solution) was administered twice daily. Animals of the control group received a vehicle only.
After the rats were euthanized on day 14, eyes were immediately dissected and fixed with 4% paraformaldehyde (dissolved in PBS). […] Three to five serial sections from each CNV membrane were measured, and the highest value (representing the top of a given CNV complex) was stored. Digitized images were analyzed and measured with the concomitant image-analysis software (Axiovision; Carl Zeiss). Each lesion was encircled manually, and their area (in μm^2) was calculated by the program.

[3] = test system: experimental CNV (choroidal neovascularization) leakage; assay: Fluorescence angiography in experimental laser-induced CNV; assay type: in vivo, Brown Norway rats
Protocol: as §1, §2
Aiming to document treatment of CNV in its early stage, a treatment schedule was used as follows. Laser photocoagulation was carried out as described above, and pazopanib was applied twice a day topically from post laser day 6 until study end on post laser day 14. Coagulated lesions were first documented by angiography on day 7 post laser, and only rats with ocular CNV were included in the analysis. Sodium fluorescein was injected into tail vein of the anesthetized rats and fluorescein angiograms were obtained by means of a fundus camera (FD-31A, Topcon, Tokyo, Japan). On day 14, rats underwent a second angiography. Angiograms taken 100 to 140 seconds after injection were converted to digital images, and areas of fluorescein leakage with intensity as high as in major vessels were quantified in a masked fashion BY two of us (YY; XMY) using a computer software (NIH image, Research Service Branch, Bethesda, Md.). Differences in fluorescence were calculated by the following formula:
Area of fluorescein leakage on day 14×100%/area of fluorescein leakage on day 7.

[4] = single 60-μL topical dose 0.3 mg
[5] = single 60-μL topical dose 0.3 mg, 2 h

Q: With `Cc1ccc(Nc2nccc(N(C)c3ccc4c(C)n(C)nc4c3)n2)cc1S(N)(=O)=O` [pazopanib, 5-[[4-[(2,3-dimethyl-2H-indazol-6-yl)methylamino]-2-pyrimidinyl]amino]-2-methylbenzenesulfonamide] as the compound, how does the concentration at 5 hours after third drop ([1]; eye cup tissues of the fellow non-treated eye (OD), read-out: pazopanib in eye cup tissues, fellow non-treated eye (OD), mean) read?
A: Its concentration at 5 hours after third drop is 159 ng/g.

Q: And the concentration at 5 hours after third drop ([1]; read-out: pazopanib in eye cup tissues (sclera, choroid, retina), treated eye (OS), mean)?
A: Its concentration at 5 hours after third drop is 503 ng/g.

Q: What about the “plasma level after 24 hours” value ([1]; single 30 μl eye drop) of the same compound?
A: The value was “undetectable”.

Q: And the “time of peak plasma level” value ([1]; single 30 μl eye drop)?
A: The value was 60 min.

Q: What about the peak plasma level ([1]; single 30 μl eye drop (5 mg/ml)) of the same compound?
A: The peak plasma level was about 300 ng/mL.

Q: What about the “time of choroid peak level” value [2, 4] of the same compound?
A: Its value is 8 h.

Q: And the “time of highest concentration in blood” value [2, 4]?
A: Its value is 1 h.

Q: And the “time of highest concentration in plasma” value [2, 4]?
A: Its value is 2 h.

Q: What about the “time of retina peak level” value [2, 4] of the same compound?
A: The value was 4 h.

Q: What about the “highest concentration of radioactivity in blood” value ([2]; single 60-μL topical dose 0.3 mg to right eye, at 1 h) of the same compound?
A: The value was 11.3 ng eq/g.

Q: What about the “highest concentration of radioactivity in plasma” value ([2]; single 60-μL topical dose 0.3 mg to right eye, at 2 h) of the same compound?
A: Its value is 12,8 ng eq/g.

Q: And the “choroid level of radioactivity at 2 h” value [2, 5]?
A: The value was 40.6 ng eq/g.

Q: And the “retina level of radioactivity at 2 h” value [2, 5]?
A: Its value is 9.17 ng eq/g.

Q: And the “retina peak level of radioactivity” value ([2]; single 60-μL topical dose 0.3 mg, at 4 h)?
A: The value was 10.2 ng eq/g.

Q: And the “choroid peak level of radioactivity” value ([2]; single 60-μL topical dose 0.3 mg, at 8 h)?
A: The value was 60.1 ng eq/g.

Q: And the CNV lesion area (CNV lesions; eyes treated topically with pazopanib, day 14 after laser)?
A: The CNV lesion area was 7,760.3±2,312.0 μm^2.

Q: And the “inhibition in lesion size” value (CNV lesions; lasered eyes from rats treated topically in the fellow eye)?
A: Its value is about 34%.

Q: What about the “inhibition in lesion size compared to vehicle control” value (CNV lesions; topically treated eyes, day 14) of the same compound?
A: The value was 71.7%.

Q: And the “Area of fluorescein leakage on day 14 x 100% / area on day 7” value ([3]; lesioned eyes whose fellow (contralateral) eye was pazopanib-treated, % of baseline day 7)?
A: The value was 115.24±16.72%.

Q: What about the “development of CNV lesions (vessel leakage, fluorescence angiography)” value ([3]; topically administered, post laser days 7 to 14, versus vehicle) of the same compound?
A: Its value is “significantly reduced”.

Q: What about the “Area of fluorescein leakage on day 14 x 100% / area on day 7” value ([3]; topically treated eyes, twice daily 5 mg/ml eye drops, post laser day 6-14, mean±SD, baseline 100% at day 7) of the same compound?
A: The value was 111.41±21.34%.

Q: And the “inhibition of further lesion development” value ([3]; twice-daily topical administration, versus vehicle control eyes)?
A: Its value is over 89%.
